The record followed here is PubChem BioAssay (NCI).

What all share (experiment): growth of human tumour cells (NCI), 48 h
The test system of test [1] is BT-549 breast.
The test system of test [2] is CCRF-CEM leukemia.
Test [3] concerns DU-145 prostate.
Test [4] concerns HOP-62 NSCLC.
Test [5] deals with NCI-H522 lung.
Test [6] relates to RPMI-8226 leukemia.
Test [7] deals with SK-OV-3 ovarian.
Test [8] deals with SW-620 colon.

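Assay format: 96-well plates, 48-hour exposure. GI50: concentration for 50% inhibition of growth. TGI is the concentration that stops growth completely.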

Consider `C/C=C(\C)c1cc(=O)c2c(C)cc3c(c2o1)C(=O)c1c(O)c(C2CC(C)(N(C)C)C(OC(C)=O)C(C)O2)cc(C2CC(N(C)C)C(O)C(C)O2)c1C3=O` (stereo unspecified), for which the TGI in test [1] was 3.42 µM; in test [2] it was > 50 µM; in test [3], > 50 µM; in test [4], 6.45 µM; in test [5] it was 1.16 µM; in test [6], > 50 µM. Further, the TGI in test [7] is > 50 µM; in test [8], > 27.7 µM.
For `Cc1nn(CNc2ccccc2C(F)(F)F)c(=S)n1/N=C/c1cccc2cccnc12`, the GI50 in test [1] was > 100 µM; in test [2] it was 18.9 µM; in test [3] it was > 100 µM; in test [4] it was > 100 µM; in test [5], > 100 µM; in test [6] it was 28.8 µM. In addition, the GI50 in test [7] was > 100 µM; in test [8], 65.8 µM. Besides, the TGI in test [1], in test [2], in test [3], in test [4], in test [5] and in test [6] was > 100 µM in each case. For the same compound, the TGI in test [7] and in test [8] was > 100 µM each time.
Turning to `O=C(NCCCCN1CCOCC1)c1cc2ccccc2o1`, the GI50 in test [1], in test [3], in test [4], in test [5], in test [7] and in test [8] was > 100 µM each time. Also, the TGI in test [1], in test [3], in test [4], in test [5], in test [7] and in test [8] was > 100 µM throughout.
With `CCc1nc(N)nc(N)c1-c1ccc(Cl)c([N+](=O)[O-])c1`, the TGI in test [1] was > 100 µM; in test [2] it was > 32.7 µM; in test [3], > 100 µM; in test [4], > 95.5 µM; in test [5], > 100 µM; in test [6], > 83.9 µM. The TGI in test [7] and in test [8] was > 100 µM each time.
For the compound `Cc1c(C)n(CCCN2CCN(C)CC2)c2ccc(Oc3cccc(C(=O)N4CCN(CCc5ccc(F)cc5)CC4)c3)cc12`, the GI50 in test [1] was 1.58 µM; in test [3], 1.86 µM; in test [4] it was 1.63 µM; in test [7] it was 1.91 µM; in test [8], 1.77 µM. In addition, the TGI in test [1] turned out to be 3.19 µM; in test [3] it was 3.6 µM; in test [4], 3.34 µM; in test [7], 3.62 µM; in test [8] it was 3.28 µM.
Consider `Cc1ccc(O)c(NC(=O)c2cccc(Nc3ccnc(C(F)(F)F)c3)c2)c1`, for which the GI50 was 3.18 µM in test [1]; 1.82 µM in test [2]; 16.4 µM in test [3]; 11.6 µM in test [4]; 1.23 µM in test [5]; 16.6 µM in test [7]. In addition, the GI50 in test [8] is 14.6 µM. Further, the TGI in test [1] is 21.6 µM; in test [2], 39.2 µM; in test [3], 71.5 µM; in test [4], 28.9 µM; in test [5], 5.84 µM; in test [7], 62 µM. Besides, in test [8], the TGI was determined as 38.5 µM.
With `O=C1N[C@@H]2[C@@H](O)[C@@H](O)[C@H](O)C[C@H]2c2cc3c(c(O)c21)OCCO3`, the GI50 in test [1] is 0.301 µM; in test [2], 0.0737 µM; in test [3], 0.229 µM; in test [4], 0.282 µM; in test [5] it was 0.199 µM; in test [6], 0.256 µM. In addition, the GI50 in test [7] is 0.496 µM; in test [8], 0.233 µM. Besides, the TGI came out at 1.25 µM in test [1]; 1.83 µM in test [2]; 0.84 µM in test [3]; 1.32 µM in test [4]; 0.993 µM in test [5]; 0.91 µM in test [6]. For the same compound, the TGI was 4.03 µM in test [7] and 1.55 µM in test [8].
Consider `C=CN(C(=O)N1CCN(c2cc3c(cc2F)c(=O)c(C(=O)O)cn3C2CC2)CC1)c1nc(-c2ccc(OC)cc2)cs1`, for which the GI50 was 2.39 µM in test [1]; 3.45 µM in test [2]; 3.93 µM in test [3]; 3.37 µM in test [4]; 2.67 µM in test [5]; 2.75 µM in test [6]. Moreover, in test [8], the GI50 was 4.04 µM. Moreover, the TGI was 7.52 µM in test [1]; > 100 µM in test [2]; > 100 µM in test [3]; 65.4 µM in test [4]; 6.95 µM in test [5]; > 100 µM in test [6]. The TGI in test [8] is > 100 µM.
Consider `COc1ccc(Nc2nc3cc(N)cc(N)c3nc2-c2ccccc2)cc1`, for which the GI50 was 13.4 µM in test [1]; 12 µM in test [2]; 39.3 µM in test [3]; 27.6 µM in test [4]; 14.7 µM in test [5]; 19.1 µM in test [6]. Moreover, the GI50 in test [7] is 32.8 µM; in test [8] it was 22.5 µM. The TGI in test [1] was 31.9 µM; in test [2], > 100 µM; in test [3], > 100 µM; in test [4] it was > 100 µM; in test [5] it was 27.9 µM; in test [6], > 100 µM. Also, the TGI stood at 97.5 µM in test [7] and 37 µM in test [8].
`O=c1oc2ccc(I)cc2c(=O)n1-c1ccc(Br)cc1F`: the GI50 in test [1] was 0.525 µM; in test [2], 1.93 µM; in test [3], 1.04 µM; in test [4], 1.83 µM; in test [5] it was 0.396 µM; in test [6], 0.398 µM. The GI50 in test [7] is 0.614 µM; in test [8] it was 1.1 µM. Moreover, the TGI in test [1] worked out at 2.67 µM; in test [2], 10.4 µM; in test [3], 28.8 µM; in test [4], 6.65 µM; in test [5], 4.85 µM; in test [6], 2.57 µM. The TGI is 2.97 µM in test [7] and 9.68 µM in test [8].
`COc1cc2c(cc1OC(C)C)[C@H](c1ccc(Cl)cc1)N(c1ccc(N(C)CC3CCC(N4CCN(C)C(=O)C4)CC3)cc1)C(=O)C2` (stereo partly specified): the GI50 is 2.18 µM in test [1]; 2.61 µM in test [2]; 5.3 µM in test [3]; 4.19 µM in test [4]; 3.9 µM in test [5]; 2.13 µM in test [6]. Moreover, the GI50 in test [7] was 4.05 µM; in test [8], 4.6 µM. The TGI stood at 7.7 µM in test [1]; 7.48 µM in test [2]; 11.2 µM in test [3]; 9.64 µM in test [4]; 10.4 µM in test [5]; 4.76 µM in test [6]. The TGI in test [7] is 8.86 µM; in test [8], 10 µM.
Turning to `CN(Cc1ccccc1)Cn1ccnc1`, the TGI in test [1] was > 100 µM; in test [2], > 71.2 µM; in test [3], > 100 µM; in test [4], > 100 µM; in test [5], > 100 µM; in test [6], > 78.1 µM. The TGI in test [7] and in test [8] was > 100 µM throughout.
Turning to `CCCCCCCCCCCCCCCC1=NCC[N+]1(CCO)CCO`, the GI50 is 3.3 µM in test [1]; 1.71 µM in test [4]; 4.89 µM in test [6]; 4.3 µM in test [7]; 1.76 µM in test [8]. In addition, the TGI amounted to 11.9 µM in test [1]; 3.23 µM in test [4]; 40.5 µM in test [6]; 15.9 µM in test [7]; 3.54 µM in test [8].
On to `COc1cc(/C=C2\CC3C4CC=C5C[C@@H](OC(C)=O)CC[C@]5(C)C4CC[C@]3(C)C2=O)ccc1OCCN1CCCCC1` (stereo partly specified), for which the GI50 in test [1] was 15.1 µM; in test [2], 1.25 µM; in test [3], 5.18 µM; in test [4], 12.1 µM; in test [5] it was 7.28 µM; in test [7], 2.75 µM. Further, in test [8], the GI50 is 3.18 µM. Moreover, the TGI in test [1] is 31.7 µM; in test [2] it was 3.35 µM; in test [3] it was 17.4 µM; in test [4] it was 25.9 µM; in test [5], 25.7 µM; in test [7], 8.5 µM. In test [8], this compound showed a TGI of 7.32 µM.
For `OCC1C(OCc2ccccc2)C(OCc2ccccc2)C(OCc2ccccc2)CN1Cc1ccccc1` (stereo unspecified), the TGI in test [2], in test [3], in test [4], in test [5], in test [7] and in test [8] was > 100 µM in each case.
Take `O=C(CSc1nc2c(n1Nc1ccccc1)-c1ccccc1SC2)Nc1nc(-c2ccc(Cl)cc2)cs1`: the GI50 was 33.5 µM in test [1]; > 100 µM in test [3]; 14 µM in test [4]; 5.73 µM in test [5]; > 100 µM in test [6]; 11.8 µM in test [7]. For the same compound, the TGI in test [1] was > 100 µM; in test [3] it was > 100 µM; in test [4] it was 34 µM; in test [5] it was > 100 µM; in test [6], > 100 µM; in test [7], 29.5 µM.
With `C=C(c1ccc(OC)c(/C=C/C(=O)c2ccc3c(c2)OCO3)c1)c1cc(OC)c(OC)c(OC)c1`, the GI50 is 2.15 µM in test [1]; 0.916 µM in test [2]; 5.54 µM in test [3]; 4.16 µM in test [4]; 1.55 µM in test [5]; 1.56 µM in test [6]. Moreover, in test [7], the GI50 was 5.07 µM. Moreover, the TGI is 7.27 µM in test [1]; > 100 µM in test [2]; > 100 µM in test [3]; > 100 µM in test [4]; 4.78 µM in test [5]; 7.39 µM in test [6]. Moreover, the TGI in test [7] is > 100 µM.
In the case of `Cc1nc([N+](=O)[O-])cn1-c1nc2ccccn2c1[N+](=O)[O-]`, the TGI in test [1] was > 100 µM; in test [3], 83.6 µM; in test [4], > 100 µM; in test [5] it was > 100 µM; in test [6], > 100 µM; in test [7] it was > 100 µM. Further, in test [8], the TGI was > 100 µM.
Regarding `O=c1c2c(nc3n1CCS3)[nH]c1cc([N+](=O)[O-])ccc12`, the GI50 in test [2], in test [3], in test [4], in test [5], in test [6] and in test [7] was > 100 µM each time. Moreover, in test [8], the GI50 is > 100 µM. Further, the TGI in test [2], in test [3], in test [4], in test [5], in test [6] and in test [7] was > 100 µM in each case. Further, the TGI in test [8] is > 100 µM.
As to `OC(CNc1ccnc2cc(Cl)ccc12)CNc1ccnc2cc(Cl)ccc12`, the GI50 was 1.67 µM in test [1]; 1.96 µM in test [3]; 3.17 µM in test [4]; 3 µM in test [6]; 1.92 µM in test [7]; 1.66 µM in test [8]. Also, the TGI in test [1] turned out to be 3.13 µM; in test [3], 3.76 µM; in test [4] it was 14.7 µM; in test [6] it was 11.1 µM; in test [7], 3.89 µM; in test [8] it was 3.21 µM.
In the case of `Cc1cnc2n1S(=O)(=O)c1cc(C(=O)Nc3cccc4nsnc34)c(Cl)cc1S2`, the GI50 in test [1] is > 100 µM; in test [3] it was 25.5 µM; in test [4], 20.1 µM; in test [5] it was 47.6 µM; in test [6], 17.4 µM; in test [7], > 100 µM. Further, in test [8], the GI50 is 19.1 µM. The TGI was > 100 µM in test [1]; 67.9 µM in test [3]; 35.8 µM in test [4]; > 100 µM in test [5]; 39.7 µM in test [6]; > 100 µM in test [7]. For the same compound, in test [8], the TGI amounted to 37.2 µM.
Turning to `COc1ccc(C(=O)C(CN(C)C)CN(C)C)cc1`, the GI50 in test [1] is 15.3 µM; in test [2], 1.39 µM; in test [3], 3.21 µM; in test [4] it was 17.8 µM; in test [6], 2.45 µM; in test [7], 20.2 µM. The GI50 in test [8] is 1.78 µM. For the same compound, the TGI amounted to 28.8 µM in test [1]; 5.13 µM in test [2]; 9.93 µM in test [3]; 32.9 µM in test [4]; 6.67 µM in test [6]; 59.5 µM in test [7]. This compound also returned a TGI in test [8] of 3.98 µM.
